2 compounds from US11577248B2, “Biological membrane-based sensor” (McMaster University, priority 2017, dated 2023) can be followed below.

The structures appear in SMILES notation.

One assay concerns RBC membranes. The assay can be described thus: X-ray diffraction of RBC/aspirin complexes (multi-lamellar RBC membranes on silicon wafers). Further details: species or system human. An excerpt:
X-ray scattering data was obtained using the Biological Large Angle Diffraction Experiment (BLADE) in the Laboratory for Membrane and Protein Dynamics at McMaster University. BLADE uses a 9 kW (45 kV, 200 mA) CuKα rotating anode at a wavelength of 1.5418 Å. Both source and detector are mounted on movable arms such that the membranes stay horizontal during the measurements. Focusing multi-layer optics provides a high intensity parallel beam with monochromatic X-ray intensities up to 10^10 counts/(mm^2·s). This beam geometry provides optimal illumination of the solid supported membrane samples to maximize the scattering signal. Note that there is no risk of sample damage using this in-house technique because of the large beam size and relatively low intensity of the X-ray beam as compared to synchrotron sources. The result of an X-ray experiment is a 2-dimensional intensity map of a large area of the reciprocal space, as sketched in FIG. 5. The corresponding real-space length scales are determined by d=2π/ ? and cover length scales from about 2.5 to 100 Å. All scans were measured at 28° C. and 50% relative humidity (RH) hydration. As depicted in FIG. 5a), the wafers were oriented in the X-ray diffractometer, such that the q∥-axis probed lateral structure, parallel to the wafer surface, and the perpendicular axis, qz, probed out-of-plane structure, perpendicular to the substrate. The out-of-plane structure of the membrane was determined using specular reflectivity. The relative electron density, ρ(z), is approximated by a 1-dimensional Fourier analysis. [formula] N is the highest order of the Bragg peaks observed in the experiment. The integrated peak intensities, I, are multiplied by q, to receive the form factors, F(q,). The bilayer form factor F(qz), which is in general a complex quantity, is real-valued in the case of centro-symmetry. The phase problem of crystallography, therefore, simplifies to the sign problem F(qz)=±|F(qz)| and the phases, ν, can only take the values±1. The phases, ν, are needed to reconstruct the electron density profile from the scattering data following Eq. (1). When the membrane form factor F(qz) is measured at several qz values, a continuous function, T(qz), which is proportional to F(qz), can be fitted to the data. Once an analytical expression for T(qz) has been determined from fitting the experimental peak intensities, the phases ν, can be assessed from T(qz). The phase array ν, =[−1−1 1−1 1] was used for all samples. The electron densities determined by Eq. (1) are on a relative scale. In order to compare the electron densities in FIGS. 6c) and 7c), ρ in the membrane centre at z=0 was set to 0 and the electron density at the boundaries (z values between 25 and 30 Å depending on the lamellar spacing), which probe the water layer between the stacked membranes, were scaled to the electron density of water of ρ=0.33 e^−/Å^3. In order to prepare complexes of RBC membranes containing increasing amounts of aspirin, a solution of 9 mg/mL acetylsalicylic acid (molecular weight 180 g/mol) in 18.2 MΩ·cm water was prepared. 2 μL, 3 μL, 4 μL, 5 μL, and 6 μL of this solution were added to 100 μL of the final ghosts solution resulting in acetylsalicylic acid concentrations of 1 mM, 1.5 mM, 2 mM, 2.5 mM and 3 mM. The resulting solutions were applied onto silicon wafers and dried slowly and incubated for 5 days following the above protocol. The in-plane peaks are the result of a hexagonal packing of the lipid tails in the hydrophobic membrane core (planar group p6). The distance between two acyl tails is determined to be α=4π/(√3q), where q∥ is the position of the corresponding correlation peak. The area per lipid chain is obtained to AT=(√3/2) α^2 Lipid tail distances in lo and ld domains and lipid tail areas are listed in Table 1. […]

Assay [1] concerns human red blood cell membranes. As to the kind of experiment: HBLOC sensor: cyclic voltammetry with ferricyanide on RBC membrane-coated nanostructured gold electrodes. To be noted: ferricyanide redox indicator, FIG. 10. An excerpt: Inventors have developed a method which isolates human red blood cells on a silicon chip for use as a safe and quantitative test for hemolytic bacteria. To develop our human blood cells on a chip, a sample of human blood is exposed to a hypotonic solution which causes the RBC's to burst and empty their contents. A series of sonication and washing steps are then applied to isolate only the RBC membrane, and to remove all hemoglobin and other contaminants. The result is a solution of empty membrane sacks known as RBC “ghosts”. This solution is then applied to sensors and allowed to slowly dry, leaving behind stacked sheets of RBC membrane. The sensors use nanostructured gold electrodes, functionalized for the application of the RBC membranes and maximizing the surface area for increased sensitivity of the tests. The coated electrodes are then used as part of a 3-electrode electrochemical cell, where any damage to the cell membrane allows a redox-indicator in solution to access the electrode surface. Under cyclic voltammetry or chronoamperometry measurements the reduction/oxidation of the indicator molecule gives rise to a current that is proportional to the amount of membrane damage. […] Membrane damage was quantitatively measured using ferricyanide as the redox indicator and cyclic voltammetry. […]

As for `CC(=O)Oc1ccccc1C(=O)O` [aspirin, acetylsalicylic acid], in the assay on RBC membranes (0-3 mM ASA series), the “ASA concentration at which lamellar spacing and membrane thickness of lo and ld domains coincide” value was 2.5 mM. Besides, the “effect on lamellar spacing and membrane thickness of ld lipid domains” value in the assay on RBC membranes (1-3 mM ASA) was “not affected”. Also, in the assay with RBC membranes (ASA concentration of 2.5 mM), the “overall lamellar spacing of the RBC membranes” value came out at 53.4 Å and the overall membrane thickness turned out to be 41.8 Å. Moreover, the “domain preference of the interaction with RBC membranes” value with RBC membranes (electron densities of lo and ld domains, 1 mM ASA) is “preferably interacts with lo regions”. In addition, in the assay with RBC membranes (in presence of aspirin), the “effect on lipid spacing in the ld domain” value is “unchanged”. Further, the “distance between lipids alo in lo domains” value in the assay with RBC membranes (in presence of aspirin, increase from 4.69 Å in pure RBC membranes) was 4.85 Å. In addition, the “lipid tail area in lo domains” value with RBC membranes (in presence of aspirin, increase from 19.04 Å^2 in pure RBC membranes) was found to be 20.37 Å^2. For the same compound, in the assay on RBC membranes (increasing ASA content), the “effect on lipid domain sizes” value is “approximately independent of aspirin concentration” and the “effect on peptide domain size” value is “slight increase in peptide domain size”. In the assay on RBC membranes (lo lipid domains, RBC membranes + 1 mM ASA vs pure RBC membrane), the “location of aspirin in the membrane (|z| of increased electron density, head group region)” value is reported as approximately 22.8 Å.
In the case of `CCCCCCCCCCCCOS(=O)(=O)[O-].[Na+]` [SDS, sodium dodecyl sulfate], in assay [1], the “membrane damage: reduction and oxidation peak currents” value is “increases in the reduction and oxidation peak currents”.
